SMILES strings stand for the structures. Like-named read-outs stand apart in the source and are kept apart here.

Test [1] deals with muscarinic receptor for the central nervous system. The test can be described thus: muscarinic receptor for the central nervous system (M1 Central), [3H] QNB, rat cortical membranes. The format is binding. To be noted: 10^-4; 100 µM. As for the experimental part:
Fourteen additional bioassays were preformed on either extracts, fractions or reference compounds for this botanical. To measure inhibition of [^3 H] PK11195 to the benzodiazepine receptor (BDZ) a partially purified receptor preparation was made from rat kidney membranes. The final radioactive ligand concentration was 1 nM and non-specific binding was measured using 200 nM cold PK11195. The substances, receptor and ligand were reacted in 50 mM Tris-HCL (pH 7.7) at 0-4° C. for 60 minutes. The reaction was terminated by rapid filtration of the samples through glass fiber filters. […] The inhibition of [^3 H] pinrenzepine to the muscarinic M1 receptor (M1) by the substances was measured using a partially purified receptor from bovine striatal membranes. The final hot ligand concentration was 1 nM and non-specific binding was determined in the presence of 100 nM atropine. […] The reactions were terminated by rapid vacuum filtration of the reaction mixture through glass fiber filters. […] To assay for biological activity for the muscarinic receptor for the central nervous system, receptor was partially purified from rat cortical membranes. […] Non-specific binding was determined in the presence of 100 nM atropine. […] Non-specific binding was determined using 1 mM NMDA. […] Non-specific binding was determined using 100 μM AMPA.

Another test deals with protein kinase C. To be noted: cited from earlier work.
The next test deals with Nitric oxide synthetase. The test can be described thus: nitric oxide synthetase binding (NOS), [3H] NOARG, rat brain membranes. The following applies: 10^-4; 60 min, 100 µM. As for the experimental part:
The inhibition of MAOA enzymatic activity (MAOA) was determined using rat liver mitochondrial membranes as a partially purified enzyme source. […] The reaction involves the conversion of the substrate to [^14 C] 5-hydroxyl indoleacetaldehyde+NH4^+. In brief, the enzyme is preincubated with the substances and the subtype specific blocker deprenyl (at 300 nM) for 60 minutes at 37° C. in 100 mM KPO4 (pH 7.2). Substrate is added and incubated for an additional 10 minutes. The reaction is terminated by the addition of 0.5 ml of 2M citric acid. […] Nitric oxide synthetase activity was measured using a binding assay (NOS). The receptors were made by partial purification of material from rat brain membranes. The radioligand used was [^3 H] L-N^G -Nitro-Arginine (NOARG) at a final concentration of 5 nM. Non-specific binding was determined using 100 μM of NOARG. The assay reactions were carried out in 50 mM Tris-HCl (pH 7.4) for 60 minutes at 25° C.

The test system of another test is Sindbis virus. To be noted: cited from earlier work.
In test [2] the test system is equine infectious anemia virus. The following applies: cited from earlier work.
The conditions of test [3]: mice; cited from earlier work.
In another test the test system is opiate receptor. The test can be described thus: opiate receptor non-selective, [3H] naloxone, rat forebrain. The class given is binding. As for the experimental part:
To determine the inhibitory activity of the substances for the dopamine receptor (dp) the following assay was preformed. A partial receptor preparation was prepared from bovine striatal membranes using [^3 H] spiperone as the ligand at a final concentration of 0.3 nM. To determine non-specific binding cold spiperone was tested at 1 μM. The reactions were carried out in 50 mM Tris-HCl (pH 7.7) containing 120 mM NaCl, 5 mM KCl, 2 mM CaCl2 and 1 mM MgCl2 at 37° C. for 60 minutes. […] The inhibitory properties of the substances for binding of ligand to the adenosine receptor (ADNS) was measured using a partially purified receptor preparation made from bovine striatal membranes. The radioligand used was [^3 H] 5'-N-ethylcarboxyamidoadenosine (NECA) at a final ligand concentration of 4 nM. Non-specific binding was determined in the presence of 10 μM NECA. The reactions were carried out in 50 mM Tris-HCL (pH 7.7) for 60 minutes at 25° C. […] To measure the inhibitory activity of the substances for the opiate receptor (Opiate) receptor was partially purified from rat forebrains. [^3 H] naloxone at 1 nM as the ligand used. Non-specific binding was determined in the presence of 1 μM of naloxone. […] Non-specific binding was determined in the presence of 1 μM nicotine sulfate. […] Non-specific binding was determined in the presence of 1 μM Tyr-° CRF. […]

Another test deals with NMDA. The test can be described thus: Receptor Binding by Hypericin, NMDA. As for the experimental part:
Through an NIMH screening contract (NovaScreen™, Baltimore, Md.) a commercially available crude extract from the fresh flowers and buds of Hypericum perforatum [1:1.5; hydro-alcohol (40:60) made from flowering tops; Herb Pharm] containing ~0.1% hypericin was dried under vacuum, dissolved in 4% DMSO, and diluted to an initial concentration of 50 mg/ml for in vitro screening in a battery of 39 receptor assays and two enzyme systems (Table 5, below).

For the next test, the system named is adenosine receptor. The test can be described thus: adenosine receptor non-selective (ADNS), [3H] NECA, bovine striatal membranes. The class given is binding. As for the experimental part: To determine the inhibitory activity of the substances for the dopamine receptor (dp) the following assay was preformed. A partial receptor preparation was prepared from bovine striatal membranes using [^3 H] spiperone as the ligand at a final concentration of 0.3 nM. To determine non-specific binding cold spiperone was tested at 1 μM. The reactions were carried out in 50 mM Tris-HCl (pH 7.7) containing 120 mM NaCl, 5 mM KCl, 2 mM CaCl2 and 1 mM MgCl2 at 37° C. for 60 minutes. […] The inhibitory properties of the substances for binding of ligand to the adenosine receptor (ADNS) was measured using a partially purified receptor preparation made from bovine striatal membranes. The radioligand used was [^3 H] 5'-N-ethylcarboxyamidoadenosine (NECA) at a final ligand concentration of 4 nM. Non-specific binding was determined in the presence of 10 μM NECA. The reactions were carried out in 50 mM Tris-HCL (pH 7.7) for 60 minutes at 25° C. […] To measure the inhibitory activity of the substances for the opiate receptor (Opiate) receptor was partially purified from rat forebrains. [^3 H] naloxone at 1 nM as the ligand used. Non-specific binding was determined in the presence of 1 μM of naloxone. The assays were carried out in 50 mM Tris-HCl (pH 7.4) at 25° C. for 90 minutes. […] The neuronal nicotinic receptor (Nicotinic Neuronal) was assayed using receptors partially purified from rat cortical membranes. The radioligand used was [^3 H] N-methylcarbamylcholine iodide at a final ligand concentration of 5 nM. Non-specific binding was determined in the presence of 1 μM nicotine sulfate. The assay reactions were carried out in 50 mM Tris-HCl (pH 7.4) containing 120 mM NaCl, 5 mM KCl, 2 mM CaCl2, 1 mM MgCl2, and 3 μM atropine sulfate at 4° C. for 60 minutes. […] To determine how the substances inhibit the corticotropin releasing factor (CRF) partially purified receptor from rat cortical membranes was used as the receptor preparation. […] Tyr-° CRF at a final ligand concentration of 0.1 nM. Non-specific binding was determined in the presence of 1 μM Tyr-° CRF. The reactions were carried out in 50 mM HEPES containing 10 mM MgCl2, 2 mM EGTA, 0.12 TIU/ml aprotinin and 0.3% BSA at 25° C. for 120 minutes. The reaction is terminated by centrifugation in a Sorvall centrifuge for 15 minutes at 4° C.

Test [4] deals with human immunodeficiency virus type 1 (HIV-1). To be noted: cited from earlier work.

For `Cc1cc(O)c2c(=O)c3c(O)cc(O)c4c5c(O)cc(O)c6c(=O)c7c(O)cc(C)c8c1c2c(c34)c(c78)c65` [Hypericin, hypericin], the “M1 Central” value in test [1] worked out at 55%. Further, the “protein kinase C IC50” value on protein kinase C was 1.7 µg/mL. Also, in the test on Nitric oxide synthetase, the NOS worked out at 48%. The “activity against Sindbis virus” value in the test with Sindbis virus was “Activity has also been reported”. The “activity against equine infectious anemia virus” value in [2] is “Activity has also been reported”. In addition, in [3], the “antiviral activity in vivo” value is listed as “show antiviral activity in vivo (mice)”. The OPNS in the test with opiate receptor (10^-4, Table 9I, 100 µM) was determined as 44%. The “Opiate NS % inhibition (PharmaPrint range)” value with opiate receptor (10^-4 M) is 70 ± 35%. Further, the “% Inhibition NMDA” value with NMDA (1 μM) is recorded as 48.5%; in the test with NMDA (10 μM), 81.7%; in the test with NMDA (100 μM), -20.7%; in the test on NMDA (.001 μM) it was 10.5%; in the test on NMDA (.01 μM), 24.5%; in the test on NMDA (.1 μM), -0.3%. For the same compound, the Ki on NMDA (read-out: Ki NMDA) is ~1000 nM; at NMDA (read-out: ~Ki NMDA (Table 7)), ~1100 nM. Moreover, the ADNS with adenosine receptor (10^-4, 60 min, 100 µM) amounted to 70%. The “AD,NS % inhibition (PharmaPrint range)” value in the test on adenosine receptor (10^-4 M) came out at 70 ± 20%. The “inhibition of HIV-1” value in test [4] was “inhibit”.

The term Ki denotes the dissociation constant of the complex between target and ligand, obtained from inhibition or displacement.

Source of the values: patent US6113907A, “Pharmaceutical grade St. John's Wort” (priority 1997, dated 2000).
